Test results as given in patent US20190231668A1, “SKIN WHITENING COMPOSITION CONTAINING MANNOSYLERYTHRITOL LIPID” (AMOREPACIFIC CORPORATION, priority 2016, published 2019).

System: B16F10 (melanoma cell) cell line
Assay: Inhibitory effect on melanin production in α-MSH-stimulated melanin pigment producing cells
Assay type: cell-based, mouse
Conditions: medium with α-MSH (200 nM) and 100 ppm of substance, untreated medium = 100%, α-MSH alone about 270%
Description: The inhibitory effect on melanin production in melanin pigment producing cells by the mannosylerythritol lipid (hereinafter referred to as MEL) was measured. As the cell line and serum, the mouse-derived B16F10 (melanoma cell) cell line purchased from ATCC and FBS (Cat No. 30-2020) were used. The DMEM (Cat No. 11995) required for cell culture and antibiotic-antifungal agent (Cat No. 15240-062) were purchased from Invitrogen company (GIBCO). The cell line was cultured under the conditions of 37° C., 10% CO2. […] Kojic acid was used as a positive control. After the fifth day, 1N NaOH was added and reacted at 60° C. for 2 hours to dissolve the melanin contained in the cells, and then measured the amount of melanin by measuring the absorbance at 405 nm. […] It was confirmed that the expression amount of melanin pigment by B16F10 cells in the medium supplemented with α-MSH and 100 ppm of kojic acid is about 110%, and thus the expression of melanin pigment was inhibited, and it was confirmed that the expression amount of melanin pigment in the medium supplemented with α-MSH and 1 ppm of MEL was about 180%, and the expression amount of melanin pigment in the medium supplemented with α-MSH and 5 ppm of MEL was about 90% and thus the expression of melanin pigment was inhibited.

Structure (SMILES): O=c1cc(CO)occ1O [kojic acid]
- expression amount of melanin pigment: about 110%
